Measurements published in patent publication US6124347A, “Chromene derivatives and salts thereof, and pharmaceuticals containing the same” (SSP Co., Ltd., priority 1997, dated 2000).
Converted amounts (≈) assume the structure as drawn.

System: ovolysozyme
Test: AGE formation inhibitory action (lysozyme dimer formation with xylose, SDS-PAGE, silver staining)
Type: biochemical
Conditions: 1 mg/ml ovolysozyme, 100 mM xylose, pH 7.4, 37° C., 21 days; dimer (28.8 Kda) formation relative to control
Method: With respect to each test compound, solutions of the test compound in dimethyl sulfoxide, said solutions containing said test compound at various concentrations, were each added together with 1 mg/ml of ovolysozyme and 100 mM of xylose to a phosphate-buffered physiological saline of pH 7.4. Each reaction mixture was then incubated at 37° C. for 21 days. A portion of the reaction mixture, said portion being in a predetermined amount, was then separated by sodium lauryl sulfate-polyacrylamide gel electrophoresis (SDS-PAGE). After the electrophoresis, the gel was treated by silver staining to stain proteins. AGE formation inhibitory action of the test compound was calculated in terms of 50% inhibitory concentration by image-processing and analyzing the degree of formation of the dimer (28.8 Kda) of lysozyme (14.4 Kda) relative to that in a control, that is, a reaction mixture not added with the test compound while making use of NIH Image Ver. 1.55.

| SMILES | IC50 (AGE formation inhibitory action, 50% inhibitory concentration) [µg/mL] |
| --- | --- |
| N=C(N)NN [Amionoguanidine, aminoguanidine, reference compound] | 30 (≈ 405 µM) |
| Oc1cccc(C(O)CNCC2=Cc3ccccc3OC2)c1 (stereo not shown) [Compound 6] | 10 (≈ 33.6 µM) |
| COc1cc(C(O)CNCC2=Cc3ccccc3OC2)cc(OC)c1O (stereo not shown) [Compound 9, 4-{2-[(2H-3-chromenylmethyl)amino]-1-hydroxyethyl}-2,6-dimethoxyphenol] | 30 (≈ 83.9 µM) |
| COc1cccc2c1OCC(CNCC(O)c1ccc(O)c(O)c1)=C2 (stereo not shown) [Compound 15] | 3 (≈ 8.74 µM) |
